Here are results for three compounds from patent US20240374607A1, “MEDICAMENT FOR PREVENTING AND/OR TREATING DRY EYE” (Santen Pharmaceutical Co., Ltd., priority 2021, published 2024).

The subject of data set [1] is normal male cynomolgus monkeys. The data set can be described thus: Tear film break-up time (TBUT) after single ocular instillation, Tests 1 and 2. The note with it: for Extension of TBUT: 1% (w/v) ophthalmic solution, single ocular instillation, FIG. 2.
Description: TBUT measurement tests were conducted for 10 normal male cynomolgus monkeys by partial crossover design of 5 monkeys per group. The test animals were given general anesthesia by intramuscular injection with ketamine hydrochloride (Ketalar for intramuscular injection 500 mg (registered trademark), Daiichi Sankyo Company, Limited.), and then were let their eyes closed. Then, TBUT was measured before and at 15, 30, and 60 minutes after ocular instillation of a vehicle or each ophthalmic solution (20 μL/eye) to the right eye. Specifically, 1% fluorescein solution (2 μL/eye) was instilled, and the time right after opening of the eyelids until breaking of the fluorescein layer (tear film) on the cornea was measured three times under a slit lamp, followed by calculation of the average. (N=5 eyes)
TBUT was measured in a similar manner to the method of Test 1. (N=4 or 5 eyes)
The subject of data set [2] is dry-eye model SD rat with exorbital lacrimal gland removed. The data set can be described thus: Quantity of tears by Schirmer strip in dry-eye model, Tests 3 and 4. It is filed as in vivo. The note with it: for Incremental difference in Schirmer's test at 0.5 hours after ocular instillation / Incremental difference in Schirmer's test at 8 hours after ocular instillation: 5 μL/eye, difference from vehicle-instilled group. The protocol: A somnopentyl injection five-fold diluted with physiological saline was intraperitoneally administered to a normal male SD (Sprague-Dawley) rat by 2.5 mL/kg, and the rat was given general anesthesia, followed by keeping the anesthetized state by inhalation of about 1 to 3% isoflurane. Then, the skin on each check was incised to remove the exorbital lacrimal gland, followed by suturation with a Michel suture clamp. In this test, an individual wherein reduction of tears was confirmed after 13 weeks from the removal of exorbital lacrimal gland was included as the experimental animal.
Half an hour after treatment of general anesthesia, Schirmer strip (1 mm×17 mm) was inserted to conjunctival sac of the lower eyelid of a rat, and then after 1 minute of the insertion, the wet part of the Schirmer strip was measured in increments of 0.5 mm. (N=14 or 16 eyes)
The quantity of tears was measured in a similar manner to Test 3. (N=10 eyes)
The following Tables 1 and 2 show incremental differences (mm/min) in Schirmer's test between the vehicle-instilled group and the ophthalmic-solution-instilled groups at 0.5 and 8 hours, respectively, after ocular instillation according to the results of Test 3 and Test 4. The symbol “-” in Tables 1 and 2 means not-performed.

In data set [3] the test system is dry-eye model rat whose exorbital lacrimal gland is excised. The data set can be described thus: Tear film break-up time in dry-eye model rat, Test 6. It is filed as in vivo. The note with it: concentration of 0.00001% or more, 5 μL/eye, 0.5 and 2 hours after ocular instillation; FIG. 5. The text has this:
A male SD rat was given general anesthesia, the skin on each […] cheek was incised under the anesthetized state, and then the exorbital lacrimal gland was excised to prepare a dry-eye model rat whose exorbital lacrimal gland is excised.
Untreated normal rats were assigned to an untreated group, and dry-eye model rats whose exorbital lacrimal gland is excised were assigned to a vehicle group and each ophthalmic solution group, each group consisting of 6 rats. For each group, TBUT measurement tests were conducted.

In data set [4] the test system is normal male cynomolgus monkeys. The data set can be described thus: Intraocular pressure test, twice daily repeated instillation, Test 5. The note with it: 20 μL/eye twice daily, Day 1, 7 and 14, FIG. 4. It is filed as in vivo, cynomolgus monkey. As for the experimental part: Specifically, one drop of 0.4% oxybuprocaine hydrochloride ophthalmic solution (trade name: Benoxil (registered trademark) ophthalmic solution 0.4%) was instilled to the right eye so as to provide surface anesthesia, and then the intraocular pressure was measured three times with Mentor tonometer (applanation), followed by calculation of the average. (N=6 eyes)

For the compound `CC(C)(C)NCC(O)c1cc(Cl)c(N)c(Cl)c1` (centres unmarked) [clenbuterol], the “Extension of TBUT” value in data set [1] is listed as “not confirmed”.
As for `CC(Cc1ccc(O)cc1)NCC(O)c1cc(O)cc(O)c1` (centres unmarked) [fenoterol], the “Incremental difference in Schirmer's test at 0.5 hours after ocular instillation” value was 1.8 mm/min in data set [2] (0.001% ophthalmic solution), 4.8 mm/min in data set [2] (0.01% ophthalmic solution), 6.1 mm/min in data set [2] (0.1% ophthalmic solution) and 3.6 mm/min in data set [2] (1% ophthalmic solution). Also, the “Incremental difference in Schirmer's test at 8 hours after ocular instillation” value in data set [2] (0.001% ophthalmic solution, 8 hours) was determined as 0.0 mm/min; in data set [2] (0.01% ophthalmic solution, 8 hours) it was 0.2 mm/min; in data set [2] (0.1% ophthalmic solution, 8 hours) it was 0.9 mm/min; in data set [2] (1% ophthalmic solution, 8 hours) it was 1.1 mm/min. Also, the “Extension of TBUT” value in data set [1] is “not confirmed”.
`COc1ccc(CC(C)(C)NC[C@H](O)c2cc(O)cc3c2OCC(=O)N3)cc1` [olodaterol, 6-hydroxy-8-((1R)-1-hydroxy-2-{[2-(4-methoxyphenyl)-1,1-dimethylethyl]amino}&shy;ethyl)-2H-1,4-benzoxazin-3-(4H)-one]: the “Lacrimal secretion at 8 hours after ocular instillation” value in data set [2] (0.0001 to 0.01% instilled groups, 8 hours, FIG. 3) was “highly enhanced”. Besides, the “Tear volumes at 16 hours after ocular instillation” value in data set [2] (0.001 and 0.01% instilled groups, 16 hours, FIG. 3) is given as “increase of tear volumes was observed”. Further, in data set [2] (olodaterol-instilled groups 0.00001 to 0.01%, FIG. 3), the Lacrimal secretion entry is given as “lacrimal secretion was enhanced”. In addition, the TBUT-extending effect result was “TBUT-extending effect was confirmed” in data set [3] and “confirmed in a concentration-dependent manner” in data set [1] (0.0001, 0.001, 0.01% (w/v), single ocular instillation 20 μL/eye, 15, 30, 60 minutes, FIG. 1). For the same compound, the “Effect on intraocular pressure” value in data set [4] (0.01% ophthalmic solution) and in data set [4] (0.1% ophthalmic solution) was “did not show increase and/or decrease the intraocular pressure” in each case.
